Source: PubChem BioAssay AID1963972 (Molecular Pharmacology Branch, DTP, NCI, 2024)

Test system: 945468-187-T-J2-PDC spheroids viability
Test: Anticancer human tumor 945468-187-T-J2-PDC patient-derived rectal carcinoma cell line growth inhibition [PI3K]
Conditions: spheroids with HUVEC and MSC; for IC50: curve of first compound; for viability, T/C: stronger effect = lower value; active = viability on the fitted dose curve at most 10% of control; inactive = the rest
Outline: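 Stroma-containing spheroids: tumor line, pooled-donor HUVEC, hMSC. Treatments: targeted agents with PI3K inhibitors. Dosing: clinically relevant, half-log spacing, 10 microM ceiling without known Cmax. Read-out: cell viability.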
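Also: spheroids exposed to compounds for seven days before reading.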

CC1(C)CCC(CN2CCN(c3ccc(C(=O)NS(=O)(=O)c4ccc(NCC5CCOCC5)c([N+](=O)[O-])c4)c(Oc4cnc5[nH]ccc5c4)c3)CC2)=C(c2ccc(Cl)cc2)C1 + COc1c(OCCCN2CCOCC2)ccc2c3n(c(=NC(=O)c4cnc(N)nc4)nc12)CCN3
> 10 µM: IC50 (second compound 0.00316 µM) | IC50 (second compound 0.01 µM) | IC50 (second compound 0.0316 µM) | IC50 (second compound 0.1 µM)
< 0.0316 µM: IC50 (second compound 0.316 µM) | IC50 (second compound 1 µM)
inactive: viability, T/C (second compound 0.00316 µM, first compound 0.0316 µM) 87.8% | viability, T/C (second compound 0.00316 µM, first compound 0.1 µM) 87.4% | viability, T/C (second compound 0.00316 µM, first compound 0.316 µM) 94.8% | viability, T/C (second compound 0.00316 µM, first compound 1 µM) 110% | viability, T/C (second compound 0.00316 µM, first compound 3.16 µM) 116% | viability, T/C (second compound 0.00316 µM, first compound 10 µM) 74.1% | viability, T/C (second compound 0.01 µM, first compound 0.0316 µM) 96.8% | viability, T/C (second compound 0.01 µM, first compound 0.1 µM) 100% | viability, T/C (second compound 0.01 µM, first compound 0.316 µM) 90.5% | viability, T/C (second compound 0.01 µM, first compound 1 µM) 89.6% | viability, T/C (second compound 0.01 µM, first compound 3.16 µM) 95.7% | viability, T/C (second compound 0.01 µM, first compound 10 µM) 90.3% | viability, T/C (second compound 0.0316 µM, first compound 0.0316 µM) 99.9% | viability, T/C (second compound 0.0316 µM, first compound 0.1 µM) 103% | viability, T/C (second compound 0.0316 µM, first compound 0.316 µM) 82.9% | viability, T/C (second compound 0.0316 µM, first compound 1 µM) 115% | viability, T/C (second compound 0.0316 µM, first compound 3.16 µM) 97% | viability, T/C (second compound 0.0316 µM, first compound 10 µM) 105% | viability, T/C (second compound 0.1 µM, first compound 0.0316 µM) 87.7% | viability, T/C (second compound 0.1 µM, first compound 0.1 µM) 75% | viability, T/C (second compound 0.1 µM, first compound 0.316 µM) 100% | viability, T/C (second compound 0.1 µM, first compound 1 µM) 90.5% | viability, T/C (second compound 0.1 µM, first compound 3.16 µM) 84.5% | viability, T/C (second compound 0.1 µM, first compound 10 µM) 81.6% | viability, T/C (second compound 0.316 µM, first compound 0.0316 µM) 31.3% | viability, T/C (second compound 0.316 µM, first compound 0.1 µM) 36.7% | viability, T/C (second compound 0.316 µM, first compound 0.316 µM) 47.7% | viability, T/C (second compound 0.316 µM, first compound 1 µM) 38.6% | viability, T/C (second compound 0.316 µM, first compound 3.16 µM) 33% | viability, T/C (second compound 0.316 µM, first compound 10 µM) 36.7% | viability, T/C (second compound 1 µM, first compound 0.0316 µM) 19.9% | viability, T/C (second compound 1 µM, first compound 0.1 µM) 21.4% | viability, T/C (second compound 1 µM, first compound 0.316 µM) 19.4% | viability, T/C (second compound 1 µM, first compound 1 µM) 19.9% | viability, T/C (second compound 1 µM, first compound 3.16 µM) 22.4% | viability, T/C (second compound 1 µM, first compound 10 µM) 22.6%
